Experimental data reported in ChEMBL document CHEMBL2074440, “Molecular cloning, chromosomal localization, and functional characterization of a human liver Na+/bile acid cotransporter” (J Clin Invest, 1994).
One block for each compound: values may come before it.

Key:
Parameters in all cases: scale not given: the % may be the effect or the level left
[1] = target: T1, Hepatic sodium/bile acid cotransporter (Homo sapiens, UniProt Q14973); experiment: TP_TRANSPORTER: inhibition of Taurocholate uptake (Taurochorate: 10 uM, BSP: 100 uM) in Xenopus laevis oocytes; assay type: functional, cell-based, Oocyte; settings: probe taurocholate (10 uM), read-out: Activity
T1 sequence (Q14973 whole entry): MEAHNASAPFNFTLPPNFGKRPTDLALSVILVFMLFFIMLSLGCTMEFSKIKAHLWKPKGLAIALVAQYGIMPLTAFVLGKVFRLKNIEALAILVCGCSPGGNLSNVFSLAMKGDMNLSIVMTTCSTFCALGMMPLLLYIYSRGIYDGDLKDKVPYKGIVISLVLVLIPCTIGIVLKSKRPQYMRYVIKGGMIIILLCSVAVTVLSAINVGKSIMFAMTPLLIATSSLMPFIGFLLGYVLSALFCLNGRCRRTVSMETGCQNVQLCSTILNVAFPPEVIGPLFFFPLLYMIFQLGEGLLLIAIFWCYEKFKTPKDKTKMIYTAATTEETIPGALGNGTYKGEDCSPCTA

[2] = target: T1, Hepatic sodium/bile acid cotransporter; experiment: TP_TRANSPORTER: inhibition of Taurocholate uptake (Taurochorate: 10 uM, GC: 100 uM) in Xenopus laevis oocytes; assay type: functional, cell-based; settings: oocyte
[3] = target: T1, Hepatic sodium/bile acid cotransporter; experiment: TP_TRANSPORTER: inhibition of Taurocholate uptake (Taurochorate: 10 uM, Taurolithocholate: 100 uM) in Xenopus laevis oocytes; assay type: functional, cell-based, Oocyte; settings: probe taurocholate (10 uM), read-out: Activity
[4] = target: T1, Hepatic sodium/bile acid cotransporter; experiment: TP_TRANSPORTER: inhibition of Taurocholate uptake (Taurochorate: 10 uM, TDCA: 100 uM) in Xenopus laevis oocytes; assay type: functional, cell-based; settings: oocyte
[5] = target: T1, Hepatic sodium/bile acid cotransporter; experiment: TP_TRANSPORTER: inhibition of Taurocholate uptake (Taurochorate: 10 uM, TCDC: 100 uM) in Xenopus laevis oocytes; assay type: functional, cell-based; settings: oocyte
[6] = target: T1, Hepatic sodium/bile acid cotransporter; experiment: TP_TRANSPORTER: inhibition of Taurocholate uptake (Taurochorate: 10 uM, Glycholithocholate: 100 uM) in Xenopus laevis oocytes; assay type: functional, cell-based, Oocyte; settings: probe taurocholate (10 uM), read-out: Activity
[7] = target: T1, Hepatic sodium/bile acid cotransporter; experiment: TP_TRANSPORTER: inhibition of Taurocholate uptake (Taurochorate: 10 uM, CDCA: 100 uM) in Xenopus laevis oocytes; assay type: functional, cell-based; settings: oocyte
[8] = target: T1, Hepatic sodium/bile acid cotransporter; experiment: TP_TRANSPORTER: inhibition of Taurocholate uptake (Taurochorate: 10 uM, UDCA: 100 uM) in Xenopus laevis oocytes; assay type: functional, cell-based, Oocyte; settings: probe taurocholate (10 uM), read-out: Activity
[9] = target: T1, Hepatic sodium/bile acid cotransporter; experiment: TP_TRANSPORTER: inhibition of Taurocholate uptake (Taurochorate: 10 uM, GCDCA: 100 uM) in Xenopus laevis oocytes; assay type: functional, cell-based, Oocyte; settings: probe taurocholate (10 uM), read-out: Activity
[10] = target: T1, Hepatic sodium/bile acid cotransporter; experiment: TP_TRANSPORTER: inhibition of Taurocholate uptake (Taurochorate: 10 uM, Bumetanide: 500 uM) in Xenopus laevis oocytes; assay type: functional, cell-based; settings: oocyte
[11] = target: T1, Hepatic sodium/bile acid cotransporter; experiment: TP_TRANSPORTER: inhibition of Taurocholate uptake (Taurochorate: 10 uM, Lithocholate: 100 uM) in Xenopus laevis oocytes; assay type: functional, cell-based, Oocyte; settings: probe taurocholate (10 uM), read-out: Activity
[12] = target: T1, Hepatic sodium/bile acid cotransporter; experiment: TP_TRANSPORTER: inhibition of Taurocholate uptake (Taurochorate: 10 uM, TUDC: 100 uM) in Xenopus laevis oocytes; assay type: functional, cell-based; settings: oocyte

activity at 100 µM [3]: 33%
Structure (SMILES): C[C@H](CCC(=O)NCCS(=O)(=O)O)[C@H]1CC[C@H]2[C@@H]3CC[C@@H]4C[C@H](O)CC[C@]4(C)[C@H]3CC[C@]12C [TAUROLITHOCHOLIC ACID]

Activity [4]: 10%
Structure (SMILES): C[C@H](CCC(=O)NCCS(=O)(=O)O)[C@H]1CC[C@H]2[C@@H]3CC[C@@H]4C[C@H](O)CC[C@]4(C)[C@H]3C[C@H](O)[C@]12C [TAURODEOXYCHOLIC ACID]

Activity [5]: 19%
Structure (SMILES): C[C@H](CCC(=O)NCCS(=O)(=O)O)[C@H]1CC[C@H]2[C@@H]3[C@H](O)C[C@@H]4C[C@H](O)CC[C@]4(C)[C@H]3CC[C@]12C [TAUROCHENODEOXYCHOLATE]

Activity [12]: 8%
Structure (SMILES): C[C@H](CCC(=O)NCCS(=O)(=O)O)[C@H]1CC[C@H]2[C@@H]3[C@@H](O)C[C@@H]4C[C@H](O)CC[C@]4(C)[C@H]3CC[C@]12C [TAURURSODIOL]

Further lines, the compound ahead of its results:

Structure (SMILES): O=C1OC(c2ccc(O)c(S(=O)(=O)O)c2)(c2ccc(O)c(S(=O)(=O)O)c2)c2c(Br)c(Br)c(Br)c(Br)c21 [SULFOBROMOPHTHALEIN SODIUM]
activity at 100 µM [1]: 41%

Structure (SMILES): C[C@H](CCC(=O)NCC(=O)O)[C@H]1CC[C@H]2[C@@H]3[C@H](O)C[C@@H]4C[C@H](O)CC[C@]4(C)[C@H]3C[C@H](O)[C@]12C [GLYCOCHOLIC ACID]
Activity [2]: 44%

Structure (SMILES): C[C@H](CCC(=O)NCC(=O)O)[C@H]1CC[C@H]2[C@@H]3CC[C@@H]4C[C@H](O)CC[C@]4(C)[C@H]3CC[C@]12C [LITHOGLYCOCHOLATE]
activity at 100 µM [6]: 24%

Structure (SMILES): C[C@H](CCC(=O)O)[C@H]1CC[C@H]2[C@@H]3[C@H](O)C[C@@H]4C[C@H](O)CC[C@]4(C)[C@H]3CC[C@]12C [CHENODIOL]
Activity [7]: 13%

Structure (SMILES): C[C@H](CCC(=O)O)[C@H]1CC[C@H]2[C@@H]3[C@@H](O)C[C@@H]4C[C@H](O)CC[C@]4(C)[C@H]3CC[C@]12C [URSODIOL]
activity at 100 µM [8]: 45%

Structure (SMILES): C[C@H](CCC(=O)NCC(=O)O)[C@H]1CC[C@H]2[C@@H]3[C@H](O)C[C@@H]4C[C@H](O)CC[C@]4(C)[C@H]3CC[C@]12C [GLYCOCHENODEOXYCHOLATE]
activity at 100 µM [9]: 14%

Structure (SMILES): CCCCNc1cc(C(=O)O)cc(S(N)(=O)=O)c1Oc1ccccc1 [BUMETANIDE]
Activity [10]: 71%

Structure (SMILES): C[C@H](CCC(=O)O)[C@H]1CC[C@H]2[C@@H]3CC[C@@H]4C[C@H](O)CC[C@]4(C)[C@H]3CC[C@]12C [LITHOCHOLIC ACID]
activity at 100 µM [11]: 63%
